Laboratory results reported in patent US9555086B2, “Compositions and methods for inducing an immune response” (The Regents of the University of Michigan, priority 2010, dated 2017).

What was measured:
NO signaling in DC = assay: NO production in bone marrow-derived CD11c+ dendritic cells (DAF-2DA); type: cell-based, mouse; conditions: 100 μg/ml 15mer peptide; Balb/c DC; compared to ISL-negative peptides
Protocol: Bone marrow cells from Balb/c (A and B) or DBA/1 (C and D) mice were differentiated into DCs in culture with GM-CSF ([…]) and IL-4 ([…]). CD11c+ DCs were purified using magnetic beads with >95% purity. DCs were then incubated with SE-positive (65-79*0401 or 65-79*0404), or with SE-negative (65-79*0402 or 65-79*0403) 15mer peptides and NO production was measured as described below. The results are expressed as mean±SEM fluorescence units (FU), or FU per minute. *p<0.01 compared to all ligand controls.
DCs play a key role in immune regulation. […] DC cells were incubated over time with 100 μg/ml of ISL-positive or -negative 15mer peptides, and NO production was measured.
To determine the rate of NO production, cells were loaded with 20 μM of the fluorescent NO probe 4,5-diaminofluorescein diacetate (DAF-2DA) and the fluorescence level was recorded every 5 minutes over a period of 500 minutes using a Fusion αHT system (PerkinElmer Life Sciences) at an excitation wavelength of 488 nm and emission wavelength of 515 nm. To determine IDO enzymatic activity, the generation of its product, kynurenine was measured (Takikawa et al. 1988. J Biol Chem 263:2041-2048.; herein incorporated by reference in its entirety). Cytokine concentrations were measured in cell culture supernatants using a Luminex platform (Millipore Corporation, Danvers, Mass.). […]

CD4+CD25+Foxp3+ Treg = assay: Treg differentiation in DC/CD4+ T cell co-culture; type: cell-based, mouse; conditions: 50 μg/ml peptide; for Treg differentiation (CD4+CD25+Foxp3+ abundance): DCs co-cultured with naïve CD4+CD25−CD62L+CD44− T cells, 5 days
Protocol: (A) DBA/1 bone marrow-derived CD11c+DCs were cultured overnight with 50 μg/ml SL ligand 65-79*0401 or ISL-negative control 65-79*0402, or medium. Syngeneic splenic CD4+ T cells were then added to the culture, and incubated with anti-CD3 and TGF-β for 5 days. On the left, flow cytometry dot plots showing percentages of CD25+Foxp3+ cells obtained from gated CD4+ T cells in each treatment. Each plot is representative of three experiments. On the right, bar graphs present results as mean percentage±SD of replicate samples. (B) Cultures were performed as in (A), with the exception that CD4+CD25− CD62L+CD44− naïve T cells, instead of CD4+ T cells were added to the CD11c+DCs. (C) DBA/1 bone marrow-derived CD11c+DCs were incubated overnight with 2 μg/ml tetramers (ISL-positive T-DRB1*0401, versus ISL-negative T-DRB1*0301, or T-DRB1*1501). Syngeneic CD4+CD25−CD62L+CD44− naïve T cells, anti-CD3 and TGF-β were then added to the culture and incubated for 5 days and analyzed as above.
DBA/1 bone marrow-derived CD11c+DCs were placed in 24-well plates (BD Biosciences, San Jose, Calif.) at a density of 2.5×10^5 cells per well and cultured overnight with or without 50 μg/ml of peptidic (65-79*0401 or 65-79*0402), or 2 μg/ml of tetrameric (T-DR1*0401, T-DR1*0301, or T-DR1*1501) ligands at 37° C. On the following day, 5.0×10^5 CD4+ T cells or CD4+CD25−CD62L+CD44− naïve T cells, isolated as described above, were added to each well in addition to anti-CD3 antibodies (5 μg/ml) and rhTGFβ (2.5 ng/ml).
After 5 days in culture, cells were harvested and stained for flow cytometric analysis using FITC anti-mouse CD4 (clone […]), PE anti-mouse CD25 (clone PC61) and isotype controls (Biolegend, San Diego, Calif.). […] After permeabilization, cells were stained using an APC-conjugated anti-mouse Foxp3 antibody (clone FLK-16S from e-Bioscience, San Diego, Calif.) and analyzed by FACScalibur flow cytometer using the CELLQuest™ software (Becton Dickinson, Franklin Lakes, N.J.).

trypsin and chymotrypsin = assay: Trypsin/chymotrypsin stability assay; conditions: after 30 minutes, 37° C., pH 8

H-KDLLEQKRAAVDTYC-NH2 [65-79*0401]
NO production (NO signaling in DC): much more robust NO production
Treg expansion (CD4+CD25+Foxp3+ abundance) (CD4+CD25+Foxp3+ Treg; DCs co-cultured with CD4+ T cells, TGF-β, anti-CD3, 5 days): significantly inhibited
Treg differentiation (CD4+CD25+Foxp3+ abundance) (CD4+CD25+Foxp3+ Treg): significantly inhibited
Treg differentiation (CD4+CD25+Foxp3+ abundance) (CD4+CD25+Foxp3+ Treg; listed as 65-79*040): statistically significant, yet modest
degradation by trypsin/chymotrypsin (HPLC) (trypsin and chymotrypsin): degraded completely
